# Assay results taken from publication PMC5907308, “21st Brazilian Diabetes Society Congress” (Diabetology & Metabolic Syndrome, 2018).
# Like-named read-outs stand apart in the source and are kept apart here.
# What was measured:
# [1] = tested on: Gram-positive; assay: Antibiogram of tissue fragment cultures of infected diabetic foot ulcers, Gram-positive; assay type: cell-based; conditions: 51 cultures of tissue fragment, WHONET 5.6, Graphic 2
# Excerpt: DFU patients with tissue fragment culture and antibiogram were included in the study sample. Microbiota resistance profile analyzed through WHO freeware softwares BACLINK 2.0 and WHONET 5.6.
# [2] = tested on: healthy and non-diabetic women; conditions: after 7 days
# Protocol: Methods: Twenty healthy and non-diabetic women (19–37 years old) were evaluated at baseline and 7 days after dapagliflozin (10 mg/day), maintaining their regular lifestyle. Body mass index (BMI), sagittal abdominal diameter, body composition by electrical bioimpedance and energy expenditure of resting and oxidation of energetic substrates in fasting by indirect calorimetry were analyzed. Functional magnetic resonance imaging detected the activation of brain areas against the stimulation of glucose and dapagliflozin. From the oral glucose tolerance test (TTOG), insulin sensitivity, hepatic insulin extraction and beta-cell function were assessed by mathematical modeling. Moreover, glucose, insulin, peptide C, glucacon, glycated hemoglobin, adiponectin and free fatty acids were measured.
# [3] = tested on: patients with DM1
# Protocol: Methods: Observational and retrospective study in which they were analysed the medical recordo f patients with DM1 who made use of this medication in dose of 10 mg/day through 3-6 months.
# [4] = tested on: patient with type 2 diabetes; conditions: in vivo
# Protocol: An overweight person (BMI 37.4 kg/m^2) with a 9-year history of type 2 diabetes had been taking metformin (1 g/day), glyburide (10 mg/day) and vildaglipitin (100 mg/day) for 7 years. They were admitted for elective bariatric surgery and stopped their medications a day before. […] It is known that there are some factors that contribute for DKA, like decreasing in-carbohydrate intake, infection or reduction of insulin therapy.
# [5] = tested on: patient with type 2 diabetes mellitus
# Protocol: Case report: M.G.G.A, person, married, sought an endocrinologist in 2014 due to the diagnosis of type 2 diabetes mellitus 3 years ago, they used glimeperide 4 mg/day and metformin (MTF) 1 g/day. They were hypertensive and dyslipidemic, already under treatment, and reported difficulty in losing and maintaining weight for several years. They denied physical activity (PA) practice for 1 month (before walking 3x/week) and in a 24-hour diet reminder there was an excess of simple carbohydrate (SC) intake and saturated fat (SF). […] The patient was oriented to change their lifestyle and it was also requested exams. […] At this time, due financial limitation, they were directed to maintain medications, prescribed vitamin D3 14,000 IU/week and stimulated lifestyle change (LC).
# [6] = tested on: C57BL/6 mice
# Protocol: Methods: C57BL/6 mice received vehicle or dapagliflozin (1, 5 or 10 mg/kg) by gavage once a day for 2 weeks. Body weight and food intake were evaluated at treatment times 0, 7 and 14 days. At the end of the treatment, glucose tolerance was evaluated by ipGTT as well as epididymal adipose tissue weight and neurotransmitters by immunofluorescence.
# [7] = tested on: type 2 diabetic patient; assay: Case report: liraglutide added to insulin degludec and metformin; assay type: in vivo, human; conditions: last evaluation
# Protocol: patient one, type 2 diabetic for 3 years, using Gliclazide 60 mg/day and Metformin 1500 mg/day. They reported asthenia and difficulty losing weight. […] To optimize patient glycemic control and weight loss, Liraglutide 1.2 mg/day was initiated. […] The insulin dose was reduced to 10 U and reassessed in 30 days for possible discontinuation of insulin therapy. GLP- 1 receptor agonists stimulate insulin secretion in a […] manner, inhibit glucagon secretion and hepatic glucose output, delay gastric emptying, induce satiety, reduce appetite, and cause weight loss. […] It is a therapeutic option with action well established in weight loss, metabolic and glycemic improvement in the DM2 patient. However, its action on HbA1C reduction was independent of weight loss, evidencing intensive glycemic control with HbA1C between 6.5 and 7.0% even with discrete or even absent weight loss.
# [8] = tested on: participants with type 2 diabetes and high cardiovascular risk; assay: LEADER trial, renal outcomes; assay type: in vivo, human
# Excerpt: Background: The effects of liraglutide, a long-acting glucagon-like peptide-1(GLP-1) analog, on renal outcomes in type 2 diabetes are unknown. We conducted a randomized, double-blind, placebo-controlled trial comparing liraglutide vs placebo, both on a background of standard of care, in participants with type 2 diabetes and high cardiovascular risk.
# Renal events were key secondary outcomes. The primary renal outcome was a composite of new onset of persistent macroalbuminuria, persistent doubling of serum creatinine, end stage renal disease (ESRD), or death due to renal disease. Risk of renal outcomes was determined using intention-to-treat in time-to-event analyses; competing risk of death was taken into account. Change of eGFR and loss of eGFR by > − 30% was also analyzed.
# [9] = tested on: patients after Roux-en-Y gastric bypass; assay: Postprandial hyperinsulinemic hypoglycemia after RYGB, case series; assay type: in vivo, human; conditions: Case 1
# Protocol: Cases report: Case (1) A person developed postprandial hypoglycemic episodes 6 years after Roux-en-Y gastric bypass (RYGB). A mixed meal tolerance test (MMTT, 500 kcal, 20% protein, 20% fat and 60% carbohydrates) was performed, leading to symptomatic postprandial hyperinsulinemic hypoglycemia (PHH) with a nadir of 45 mg/dL at 120 min (insulin of 8 mU/L; C-peptide of 3.21 ng/mL). […] Cases 2 and 3). Two […] women presented hypoglycemia following meals 3 and 5 years after RYGB. MMTT (120 min): glycemia of 34 mg/dL, insulin of 17 mU/L and C-peptide of 6.23 ng/mL and, in the second one, glycemia of 52 mg/dL, insulin of 9 mU/L and C-peptide of 2.7 ng/mL. PT and MRCP were normal in both cases. […] Case 4). A person who underwent RYGB 1.5 years ago reported hypoglycemic episodes in the last 6 months. MMTT: glycemia of 26 mg/dL at 150 min, insulin of 34 mU/L and C-peptide of 6.03 ng/mL. […] They were submitted to distal pancreatectomy and symptoms disappeared after diazoxid and hydrochlorothiazide. Case 5). A person developed hypoglycemia 10 years after RYGB. […] MMTT: glycemia of 43 mg/dL at 120 min, insulin of 100 mU/L and C-peptide of 1.95 ng/mL. […] Antiinsulin antibodies were negative in all cases (Table 1).
# [10] = tested on: patient with schizophrenia; assay: New-onset diabetes caused by atypical antipsychotic, case report; assay type: in vivo, human
# Excerpt: Case report: A patient, previously healthy, had been diagnosed with schizophrenia and started treatment with risperidone. Due to the lack of response, the medication was switched to olanzapine. After 2 years on the new treatment, however, they experienced polyuria, polydipsia and polyphagia, with a weight gain of approximately 12 kg in a period of 2 years. They were diagnosed with new-onset diabetes mellitus and hypertriglyceridemia and was referred to our center for evaluation. They were started on metformin 500 mg/day, NPH insulin 9 units before breakfast and 7 units bedtime, and bezafibrate 200 mg/day. […] LDL was not calculated due to the hypertriglyceridemia. Insulin was titrated to achieve glycemic control and autoantibodies (antiGAD, antiICA and anti-insulin) were requested, but they were negative. A letter was addressed to the psychiatry staff regarding olanzapine’s adverse events, which was exchanged to ziprasidone. […] Insulin dosing was reduced and further withdrawn 3 months after initiation of ziprasidone. Currently, 2 months thereafter, they are on good glycemic control with metformin and alogliptin.
# [11] = tested on: child with CGL type 2; assay: Case report: high doses of insulin in congenital generalized lipodystrophy; assay type: in vivo, human; conditions: continuous IV infusion of RI raised to 26.6 IU/kg/day
# Protocol: Case: Child with clinical diagnosis of CGL type 2 and diagnosis of diabetes for 1 year. Using Glargina and Lispro insulin basal/bolus (5.1 IU/kg/day) presented mean daily capillary glycemia above 600 mg/dl, associated with irritability, low weight and voracious appetite. Interned for intravenous insulin therapy and nutritional adjustment with standardized diet of 1600 kcal/day fractionated in 7 meals. Initiated continuous infusion of regular insulin (RI), 6.1UI/kg/day. […] Subsequently, it was modified to intramuscular administration, in 5 application times, without differences in glycemic averages. On the 36 th day, Degludeca insulin was introduced (9.3 IU/kg/day) associated with RI (18.2 U/kg/day), evolving within the first 24 h with improved glycemia (180 ± 42 mg/dl). […] After approximately fivefold increase in the initial insulin dose, there was improvement in glycemia, irritability, weight gain and decreased appetite.
molecule,measurement,setting,value
CO/N=C(\C(=O)N[C@@H]1C(=O)N2C(C(=O)O)=C(CSc3nc(=O)c(=O)[nH]n3C)CS[C@H]12)c1csc(N)n1 [Ceftriaxone],"%R (resistance), Gram-positive",[1],70%
"CCOc1ccc(Cc2cc([C@@H]3O[C@H](CO)[C@@H](O)[C@H](O)[C@H]3O)ccc2Cl)cc1 [Dapaglifozin, dapagliflozin]",adiponectin levels,"[2]; 3.2 ± 1.4 at baseline, p = 0.02",5.7 ± 3.3 µg/mL
same,insulinemia,"[2]; 5.7 ± 3.6 at baseline, p = 0.05",3.9 ± 3.5 mU/mL
same,BMI,"[2]; 21.7 ± 2.0 at baseline, p = 0.05",21.5 ± 2.0 kg/m^2
same,fat percentage,"[2]; 28.4 ± 6.3 at baseline, p = 0.46",27.6 ± 4.0%
same,glycemia,"[2]; 75 ± 7 at baseline, p = 0.02",71 ± 7 mg/dL
same,average BMI after treatment,"[3]; 26.1 before, p = 0.002",25.4 kg/m^2
same,"systolic blood pressure, median after therapy","[3]; 120 mmHg before, p = 0.02",115 mmHg
same,patients with ketoacidosis,[3]; in vivo,8.3%
same,patients with pain or pruritus on genital region,[3]; in vivo,33.3%
same,patients with urinary tract infection (UTI),[3]; n = 12,8.3%
same,average weight after therapy,"[3]; n = 12, 68.3 kg before, p = 0.002",65.3 kg
same,arterial pH at readmission,[4],7.23
same,bicarbonate at readmission,[4],5 mEq/L
same,glucose at readmission,[4],165 mg/dL
same,weight (W),"[5]; 9 months of DAPA 10 mg/day and MTF 1 g/day, 78.6 kg before",69.9 kg
same,BMI,"[5]; 9 months, 33.14 before",29.47 kg/m^2
same,abdominal circumference (AC),"[5]; 9 months, 108 cm before",98 cm
same,postprandial glycemia (PPG),"[5]; 9 months, 163 before",152 mg/dL
same,fasting glycemia (FG),"[5]; 9 months, 166 before",118 mg/dL
same,Hb1Ac,"[5]; 9 months, […] before",7.0%
same,HbA1c,[5]; during 3 years of follow-up,around 6.8%
same,weight (W),[5]; during 3 years of follow-up,69 kg
same,body weight gain (mean),"[6]; 1, 5 or 10 mg/kg, 2 weeks, p < 0.05",0.56 ± 1.1 g
same,food intake,[6]; 2 weeks,did not alter food intake significantly
same,fasting glycemia (mean),"[6]; 2 weeks, p < 0.05",165.6 ± 28.8 mg/dL
same,epididymal adipose mass (mean),"[6]; 2 weeks, p = 0.13",0.15 ± 0.02 g
same,area under glucose curve during the glucose tolerance test (mean),"[6]; ipGTT, p < 0.05","28,078 ± 5623.5 arbitrary units"
same,glycosuria (mean),"[6]; min = 30, max = 1221, p < 0.05",307.2 mg/dL
CC[C@H]1OC(=O)[C@H](C)[C@@H](O[C@H]2C[C@@](C)(OC)[C@@H](O)[C@H](C)O2)[C@H](C)[C@@H](O[C@@H]2O[C@H](C)C[C@H](N(C)C)[C@H]2O)[C@](C)(O)C[C@@H](C)C(=O)[C@H](C)[C@@H](O)[C@]1(C)O [Erythromycin],"%R (resistance), Gram-positive",[1],70%
CCCCCCCCCCCCCCCC(=O)N[C@@H](CCC(=O)NCCCC[C@H](NC(=O)[C@H](C)NC(=O)[C@H](C)NC(=O)[C@H](CCC(N)=O)NC(=O)CNC(=O)[C@H](CCC(=O)O)NC(=O)[C@H](CC(C)C)NC(=O)[C@H](Cc1ccc(O)cc1)NC(=O)[C@H](CO)NC(=O)[C@H](CO)NC(=O)[C@@H](NC(=O)[C@H](CC(=O)O)NC(=O)[C@H](CO)NC(=O)[C@@H](NC(=O)[C@H](Cc1ccccc1)NC(=O)[C@@H](NC(=O)CNC(=O)[C@H](CCC(=O)O)NC(=O)[C@H](C)NC(=O)[C@@H](N)Cc1c[nH]cn1)[C@@H](C)O)[C@@H](C)O)C(C)C)C(=O)N[C@@H](CCC(=O)O)C(=O)N[C@@H](Cc1ccccc1)C(=O)N[C@H](C(=O)N[C@@H](C)C(=O)N[C@@H](Cc1c[nH]c2ccccc12)C(=O)N[C@@H](CC(C)C)C(=O)N[C@H](C(=O)N[C@@H](CCCNC(=N)N)C(=O)NCC(=O)N[C@@H](CCCNC(=N)N)C(=O)NCC(=O)O)C(C)C)[C@@H](C)CC)C(=O)O [Liraglutide],HbA1c,[7],6.4%
same,total weight loss,[7]; […] of total weight,6 kg
same,albuminuria vs placebo,[8]; in vivo,increased less
same,eGFR vs placebo,[8]; in vivo,decreased significantly less
same,"primary renal outcome, participants","[8]; median follow-up 3.84 years, placebo 337 of 4672",268 of 4668
same,"primary renal outcome, HR vs placebo",[8]; p = 0.003,0.787 [0.670;0.924]
same,"new onset of persistent macroalbuminuria, HR vs placebo",[8]; p = 0.004,0.74 [0.61;0.91]
same,"new onset of persistent macroalbuminuria, participants",[8]; placebo 215 of 4672,161 of 4668
Cc1onc(-c2ccccc2)c1C(=O)N[C@@H]1C(=O)N2[C@@H]1SC(C)(C)[C@@H]2C(=O)O [Oxacillin],"%R (resistance), Gram-positive",[1],70%
CC1=Nc2ccc(Cl)cc2S(=O)(=O)N1 [diazoxid],clinical response of postprandial hypoglycemia,[9],hypoglycemia was avoided
Cc1cc2c(s1)Nc1ccccc1N=C2N1CCN(C)CC1 [olanzapine],HDL,[10]; After 2 years on olanzapine,65 mg/dL
same,Total cholesterol,[10]; After 2 years on olanzapine,570 mg/dL
same,triglycerides,[10]; After 2 years on olanzapine,3455 mg/dL
same,weight gain,[10]; period of 2 years on olanzapine,approximately 12 kg
RI: regular insulin,mean capillary glycemia,[11],283 ± 99 mg/dL
